Measured values reported in US20250171447A1, “ADENOSINE RECEPTOR ANTAGONISTS, PHARMACEUTICAL COMPOSITIONS AND THEIR USE THEREOF” (Merck Sharp & Dohme LLC, priority 2022, published 2025).

How the values were obtained:
[1] = biological target: human A2B adenosine receptor (Homo sapiens (Human), UniProt P29275); assay: A2B binding affinity radioligand filtration binding assay; settings: membranes from HEK293 cells expressing human A2B; tritiated proprietary A2B antagonist
[2] = biological target: human A2A adenosine receptor (Homo sapiens (Human), UniProt P29274); assay: A2A receptor affinity binding assay (radioligand filtration binding or SPA, [3H]SCH58261); settings: membranes from HEK293 or CHO cells expressing human A2A; Method (A) filtration or Method (B) SPA
Chain of human A2A adenosine receptor (P29274 whole entry): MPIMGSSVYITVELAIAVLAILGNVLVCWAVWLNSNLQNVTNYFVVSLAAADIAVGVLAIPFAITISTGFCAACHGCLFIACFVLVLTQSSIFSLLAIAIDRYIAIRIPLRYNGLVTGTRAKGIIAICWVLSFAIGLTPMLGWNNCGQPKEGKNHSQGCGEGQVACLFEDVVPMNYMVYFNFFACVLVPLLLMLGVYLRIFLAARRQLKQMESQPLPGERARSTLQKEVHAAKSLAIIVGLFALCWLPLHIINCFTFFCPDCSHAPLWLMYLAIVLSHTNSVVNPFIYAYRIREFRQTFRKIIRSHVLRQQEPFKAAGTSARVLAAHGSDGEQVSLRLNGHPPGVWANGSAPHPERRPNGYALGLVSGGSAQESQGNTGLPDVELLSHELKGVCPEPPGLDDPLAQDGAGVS

Chain of human A2B adenosine receptor (P29275 whole entry): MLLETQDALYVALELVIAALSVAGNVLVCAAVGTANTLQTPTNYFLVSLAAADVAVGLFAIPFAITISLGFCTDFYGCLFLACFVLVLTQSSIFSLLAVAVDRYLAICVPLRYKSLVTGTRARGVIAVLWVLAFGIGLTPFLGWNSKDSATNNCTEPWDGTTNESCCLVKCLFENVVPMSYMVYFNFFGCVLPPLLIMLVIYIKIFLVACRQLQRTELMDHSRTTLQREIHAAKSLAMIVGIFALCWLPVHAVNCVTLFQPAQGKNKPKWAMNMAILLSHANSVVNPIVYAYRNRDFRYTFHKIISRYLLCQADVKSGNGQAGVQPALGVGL

Row | SMILES | IC50 [1] [nM] | IC50 [2] [nM]
1 | COc1cccc2c1nc(N)n1nc([C@@H]3C[C@H]3c3ccc(C(C)(C)O)cc3)nc21 [Ex-1, 2-(4-((1r,2r)-2-(5-amino-7-methoxy-[1,2,4]triazolo[1,5-c]quinazolin-2-yl)cyclopropyl)phenyl)propan-2-ol] | 26.3 | 17.4
2 | COc1cccc2c1nc(N)n1nc([C@@H]3C[C@H]3c3cnn(C)c3)nc21 [Ex-2, 7-methoxy-2-((1r,2r)-2-(1-methyl-1H-pyrazol-4-yl)cyclopropyl)-[1,2,4]triazolo[1,5-c]quinazolin-5-amine] | 50.4 | 2.6
3 | COc1cccc2c1nc(N)n1nc(C3CC3c3nc4ccccc4n3C)nc21 (centres unmarked) [Ex-3, 7-methoxy-2-[2-(1-methyl-1H-benzimidazol-2-yl)cyclopropyl][1,2,4] triazolo[1,5-c] quinazolin-5-amine] | 2.9 | 
4 | CNC(=O)c1cccc(C2CC2c2nc3c4cccc(OC)c4nc(N)n3n2)c1 (centres unmarked) [Ex-4, 3-[2-(5-amino-7-methoxy[1,2,4]triazolo [1,5-c]quinazolin-2-yl)cyclopropyl]-N-methylbenzamide] | 25 | 0.4
5 | COc1cccc2c1nc(N)n1nc(C3CC3c3cccc(NC(C)=O)c3)nc21 (centres unmarked) [Ex-5, N-{3-[2-(5-amino-7-methoxy[1,2,4]triazolo [1,5-c]quinazolin-2-yl)cyclopropyl]phenyl} acetamide] | 15.4 | 0.5
6 | COc1cccc2c1nc(N)n1nc(C3CC3c3ccc4c(c3)C(=O)NC4)nc21 (centres unmarked) [Ex-6, 6-[2-(5-amino-7-methoxy[1,2,4]triazolo [1,5-c]quinazolin-2-yl)cyclopropyl]-2,3-dihydro-1H-isoindol-1-one] | 13.2 | 0.9
7 | COc1cccc2c1nc(N)n1nc(C3CC3c3cn4ccnc4cc3C)nc21 (centres unmarked) [Ex-7] | 66.1 | 1.3
8 | COc1cccc2c1nc(N)n1nc(C3CC3c3ccc4c(c3)CNC4=O)nc21 (centres unmarked) [Ex-8, 5-[2-(5-amino-7-methoxy[1,2,4]triazolo [1,5-c]quinazolin-2-yl)cyclopropyl]-2,3-dihydro-1H-isoindol-1-one] | 31 | 1.5
9 | COc1cccc2c1nc(N)n1nc(C3CC3c3ccc4nnc(C)n4c3)nc21 (centres unmarked) [Ex-9, 7-methoxy-2-[2-(3-methyl[1,2,4]triazolo [4,3-a]pyridin-6-yl)cyclopropyl][1,2,4] triazolo[1,5-c] quinazolin-5-amine] | 337 | 2
10 | COc1cccc2c1nc(N)n1nc(C3CC3C)nc21 (centres unmarked) [Ex-10, 7-methoxy-2-[2-methylcyclopropyl] [1,2,4]triazolo[1,5-c] quinazolin-5-amine] | 45.4 | 2.6
11 | COc1cccc2c1nc(N)n1nc(C3CC3c3ccc(C)nc3)nc21 (centres unmarked) [Ex-11, 7-methoxy-2-[2-(6-methylpyridin-3-yl)cyclopropyl][1,2,4] triazolo[1,5-c] quinazolin-5-amine] | 78.4 | 3.1
12 | COc1cccc2c1nc(N)n1nc([C@H]3C[C@H](c4ncc(C(C)(C)N)cc4C)C3)nc21 [Ex-83, 2-((1r,3r)-3-(5-(2-aminopropan-2-yl)-3-methylpyridin-2-yl)cyclobutyl)-7-methoxy-[1,2,4]triazolo[1,5-c]quinazolin-5-amine] | 1.6 | 
13 | COc1cccc2c1nc(N)n1nc([C@H]3C[C@H](c4ccc(CN5CCNCC5)cc4)C3)nc21 [Ex-98, 7-methoxy-2-(trans-3-{4-[(piperazin-1-yl)methyl]phenyl}cyclobutyl)[1,2,4]triazolo[1,5-c]quinazolin-5-amine] |  | 1.6
14 | COc1cccc2c1nc(N)n1nc([C@H]3C[C@@H](c4ccc([C@@]5(C(F)(F)F)CCCCN5)cc4)C3)nc21 [Ex-99, 7-methoxy-2-(cis-3-{4-[(2R)-2-(trifluoromethyl)piperidin-2-yl]phenyl}cyclobutyl)[1,2,4]triazolo[1,5-c]quinazolin-5-amine] |  | 0.6
15 | COc1cccc2c1nc(N)n1nc([C@H]3C[C@H](c4ccc([C@@]5(C(F)(F)F)CCCCN5)cc4)C3)nc21 [Ex-100, 7-methoxy-2-(trans-3-{4-[(2R)-2-(trifluoromethyl)piperidin-2-yl]phenyl}cyclobutyl)[1,2,4]triazolo[1,5-c]quinazolin-5-amine] |  | 3.2
16 | COc1cccc2c1nc(N)n1nc([C@H]3C[C@@H](c4cnc(N5CCN[C@H](C)C5)c(C)c4)C3)nc21 [Ex-101, 7-methoxy-2-(cis-3-{5-methyl-6-[(3R)-3-methylpiperazin-1-yl]pyridin-3-yl}cyclobutyl)[1,2,4]triazolo[1,5-c]quinazolin-5-amine] |  | 0.7
17 | COc1cccc2c1nc(N)n1nc([C@H]3C[C@H](c4cnc(N5CCN[C@H](C)C5)c(C)c4)C3)nc21 [Ex-102, 7-methoxy-2-(trans-3-{5-methyl-6-[(3R)-3-methylpiperazin-1-yl]pyridin-3-yl}cyclobutyl)[1,2,4]triazolo[1,5-c]quinazolin-5-amine] |  | 1.5
18 | COc1cccc2c1nc(N)n1nc([C@H]3C[C@@H](c4cnc(CN)nc4)C3)nc21 [Ex-112, 2-{(cis)-3-[2-(aminomethyl)pyrimidin-5-yl]cyclobutyl}-7-methoxy[1,2,4]triazolo[1,5-c]quinazolin-5-amine] |  | 4.2
19 | COc1cccc2c1nc(N)n1nc([C@H]3C[C@H](c4cnc(CN)nc4)C3)nc21 [Ex-113, 2-{trans-3-[2-(aminomethyl)pyrimidin-5-yl]cyclobutyl}-7-methoxy[1,2,4]triazolo[1,5-c]quinazolin-5-amine] |  | 2.2
20 | COc1cccc2c1nc(N)n1nc([C@H]3C[C@H](c4ccc(N5CCN(C)CC5)nc4)C3)nc21 [Ex-114, 7-methoxy-2-{trans-3-[6-(4-methylpiperazin-1-yl)pyridin-3-yl]cyclobutyl}[1,2,4]triazolo[1,5-c]quinazolin-5-amine] |  | 1.3
21 | COc1cccc2c1nc(N)n1nc([C@H]3C[C@@H](c4ccc(N5CCN(C)CC5)nc4)C3)nc21 [Ex-115, 7-methoxy-2-{cis-3-[6-(4-methylpiperazin-1-yl)pyridin-3-yl]cyclobutyl}[1,2,4]triazolo[1,5-c]quinazolin-5-amine] |  | 1.7
22 | COc1cccc2c1nc(N)n1nc([C@H]3C[C@@H](c4ncc(C5(O)COC5)cc4C)C3)nc21 [Ex-119, 3-{6-[cis-3-(5-amino-7-methoxy[1,2,4]triazolo[1,5-c]quinazolin-2-yl)cyclobutyl]-5-methylpyridin-3-yl}oxetan-3-ol] |  | 1.8
23 | COc1cccc2c1nc(N)n1nc([C@H]3C[C@H](c4ncc(C5(O)COC5)cc4C)C3)nc21 [Ex-120, 3-{6-[trans-3-(5-amino-7-methoxy[1,2,4]triazolo[1,5-c]quinazolin-2-yl)cyclobutyl]-5-methylpyridin-3-yl}oxetan-3-ol] |  | 0.5

Other lines, results leading:

Row | IC50 [1] [nM] | IC50 [2] [nM] | SMILES
24 |  | 3.7 | COc1cccc2c1nc(N)n1nc([C@H]3C[C@H](c4cnc(C(C)(C)N)c(C)n4)C3)nc21 [Ex-121, 2-((1r,3r)-3-(5-(2-aminopropan-2-yl)-6-methylpyrazin-2-yl)cyclobutyl)-7-methoxy-[1,2,4]triazolo[1,5-c]quinazolin-5-amine]
25 |  | 15.9 | COc1cccc2c1nc(N)n1nc([C@H]3C[C@@H](c4cnc(C(C)(C)N)c(C)n4)C3)nc21 [Ex-122, 2-((1s,3s)-3-(5-(2-aminopropan-2-yl)-6-methylpyrazin-2-yl)cyclobutyl)-7-methoxy-[1,2,4]triazolo[1,5-c]quinazolin-5-amine]
26 |  | 1.8 | COc1cccc2c1nc(N)n1nc([C@H]3C[C@@H](c4ncc(C5(N)COC5)cc4C)C3)nc21 [Ex-123, 2-{cis-3-[5-(3-aminooxetan-3-yl)-3-methylpyridin-2-yl]cyclobutyl}-7-methoxy[1,2,4]triazolo[1,5-c]quinazolin-5-amine]
27 |  | 0.4 | COc1cccc2c1nc(N)n1nc([C@H]3C[C@H](c4ncc(C5(N)COC5)cc4C)C3)nc21 [Ex-124, 2-{trans-3-[5-(3-aminooxetan-3-yl)-3-methylpyridin-2-yl]cyclobutyl}-7-methoxy[1,2,4]triazolo[1,5-c]quinazolin-5-amine]
28 |  | 2.6 | COc1cccc2c1nc(N)n1nc([C@H]3C[C@H](c4ncc(C(C)(C)N)nc4C4CC4)C3)nc21 [Ex-125, 2-((1r,3r)-3-(5-(2-aminopropan-2-yl)-3-cyclopropylpyrazin-2-yl)cyclobutyl)-7-methoxy-[1,2,4]triazolo[1,5-c]quinazolin-5-amine]
29 |  | 4.6 | COc1cccc2c1nc(N)n1nc([C@H]3C[C@H](c4ncc(C(C)(C)N)nc4C(F)(F)F)C3)nc21 [Ex-126, 2-{trans-3-[5-(2-aminopropan-2-yl)-3-(trifluoromethyl)pyrazin-2-yl]cyclobutyl}-7-methoxy[1,2,4]triazolo[1,5-c]quinazolin-5-amine]
30 |  | 2.9 | Cc1nc(C(C)(C)N)cnc1[C@H]1C[C@H](c2nc3c4cccc(Cl)c4nc(N)n3n2)C1 [Ex-127, 2-((1r,3r)-3-(5-(2-aminopropan-2-yl)-3-methylpyrazin-2-yl)cyclobutyl)-7-chloro-[1,2,4]triazolo[1,5-c]quinazolin-5-amine]
31 |  | 5.7 | Cc1nc(C(C)(C)N)cnc1[C@H]1C[C@H](c2nc3c4cccc(F)c4nc(N)n3n2)C1 [Ex-133, 2-{trans-3-[5-(2-aminopropan-2-yl)-3-methylpyrazin-2-yl]cyclobutyl}-7-fluoro[1,2,4]triazolo[1,5-c]quinazolin-5-amine]
32 |  | 148 | Cc1nc(C(C)(C)N)cnc1[C@H]1C[C@@H](c2nc3c4cccc(F)c4nc(N)n3n2)C1 [Ex-134, 2-{cis-3-[5-(2-aminopropan-2-yl)-3-methylpyrazin-2-yl]cyclobutyl}-7-fluoro[1,2,4]triazolo[1,5-c]quinazolin-5-amine]
33 |  | 5.4 | COc1cccc2c1nc(N)n1nc([C@H]3C[C@@H](c4ccc(C5(N)CC(F)(F)C5)cn4)C3)nc21 [Ex-140, 2-((1s,3s)-3-(5-(1-amino-3,3-difluorocyclobutyl)pyridin-2-yl)cyclobutyl)-7-methoxy-[1,2,4]triazolo[1,5-c]quinazolin-5-amine]
34 |  | 3.1 | COc1cccc2c1nc(N)n1nc([C@H]3C[C@H](c4ccc(C5(N)CC(F)(F)C5)cn4)C3)nc21 [Ex-141]
